Assay [1] deals with NCI-H358 cells. As to the kind of experiment: Combination treatment of a SHP2 inhibitor with other therapeutic agents, NSCLC with KRAS mutant xenograft. The class given is in vivo, BALB/c nude mice. Conditions: 10 mg/kg per day combined with CDK4/6 inhibitor SYB-020097 (30 mg/kg per day), oral once daily for 28 days, mice. As for the experimental part: NCI-H358 cells were expanded in culture, harvested and injected subcutaneously into 6-8 weeks old female BALB/c nude mice (5×10^6 cell/each mouse, supplemented with Matrigel (1:1) for tumor development, n=9 per group). Subsequent administration of a compound or combination of compounds by oral gavage started when the mean tumor size reached approximately 150-200 mm^3. During the treatment (once a day for 4 weeks), the tumor volumes were measured using a caliper. Statistical analysis of difference in tumor volume among the groups were evaluated using a one-way ANOVA. Vehicle alone was the negative control.

Assay [2] relates to KYSE-520 cells. Put plainly: Esophageal KYSE-520 xenograft model. The note with it: oral 30 mg/kg per day, once a day for 4 weeks, mice. The class given is in vivo, BALB/c nude mice. As for the experimental part: KYSE-520 cells were expanded in culture, harvested and injected subcutaneously into 6-8 weeks old female BALB/c nude mice (5×10^6 cell/each mouse, supplemented with Matrigel (1:1) for tumor development, n=9 per group). Subsequent administration of a compound by oral gavage started when the mean tumor size reached approximately 150-200 mm^3. During the treatment (once a day for 4 weeks), the tumor volumes were measured using a caliper. Statistical analysis of difference in tumor volume among the groups were evaluated using a one-way ANOVA. Vehicle alone was the negative control.

Assay [3] relates to Mai-Pa-ca-2 cells. Put plainly: Pancreatic cancer Mia-Pa-Ca-2 xenograft studies. Format: in vivo, BALB/c nude mice. As for the experimental part: Mai-Pa-ca-2 cells were expanded in culture, harvested and injected subcutaneously into 6-8 weeks old female BALB/c nude mice (5×10^6 cell/each mouse, supplemented with Matrigel (1:1) for tumor development, n=9 per group). Subsequent administration of a compound by oral gavage started when the mean tumor size reached approximately 150-200 mm^3. During the treatment (once a day for 21 days), the tumor volumes were measured using a caliper. Statistical analysis of difference in tumor volume among the groups were evaluated using a one-way ANOVA. Vehicle alone was the negative control.

The test system of assay [4] is KYSE-520 cell line. As to the kind of experiment: Cell proliferation assay (CellTiter Glo), KYSE-520. The class given is cell-based. The note with it: Homo sapiens, 3-5 days. As for the experimental part:
Firstly, the cells were seeded in 384-well cell culture plate and incubate overnight. The test compounds were added to the cell plate and incubated for 3-5 days. The cell plate was then detected using CellTiter Glo reagents.
Background: In ATP-based viability assays light output follows the ATP content of the culture.

For assay [5], the target named is T1, Full length SHP2 enzyme (Homo sapiens, UniProt Q06124).
T1 construct: Full length SHP2 enzyme (diluted to 0.1 nM in reaction buffer)
T1 sequence (Q06124 1-593): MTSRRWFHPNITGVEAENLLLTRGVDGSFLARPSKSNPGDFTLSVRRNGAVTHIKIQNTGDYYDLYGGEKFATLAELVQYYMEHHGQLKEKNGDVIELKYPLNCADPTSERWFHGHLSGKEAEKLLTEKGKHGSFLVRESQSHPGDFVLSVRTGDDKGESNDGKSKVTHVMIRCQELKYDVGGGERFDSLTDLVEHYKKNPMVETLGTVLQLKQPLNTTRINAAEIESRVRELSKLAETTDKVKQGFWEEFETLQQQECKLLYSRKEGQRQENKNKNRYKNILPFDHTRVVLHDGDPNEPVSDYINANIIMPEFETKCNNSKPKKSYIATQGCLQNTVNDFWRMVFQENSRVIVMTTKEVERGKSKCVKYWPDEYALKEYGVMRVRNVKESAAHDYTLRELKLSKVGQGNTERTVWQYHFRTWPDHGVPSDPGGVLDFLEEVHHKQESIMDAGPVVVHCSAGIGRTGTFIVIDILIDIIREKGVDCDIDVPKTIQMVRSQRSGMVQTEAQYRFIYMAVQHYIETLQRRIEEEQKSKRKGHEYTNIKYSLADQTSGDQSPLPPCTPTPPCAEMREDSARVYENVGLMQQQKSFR
Put plainly: SHP2 phosphatase assay. Format: biochemical. Conditions: 1 μM IRS-1 peptide, DiFMUP substrate. As for the experimental part: IC50 values were determined at room temperature in 384-well black polystyrene plate, using a final reaction volume of 15 μL and the following assay buffer conditions: 60 mM Hepes (pH=7.2), 75 mM NaCl, 75 mM KCl, and 1 mM EDTA, 0.05% P-20, 5 mM dithiothreitol (DTT). Full length SHP2 enzyme (diluted to 0.1 nM in reaction buffer) were co-incubated with 1 μM IRS-1 peptide and 0.01 nM to 10 μM compounds of the disclosure for 60 min. The surrogate substrate DiFMUP (5 μL, 100 μM) was added, and incubated at rt for 60 min. The reaction was then quenched by the addition of 5 μL of a 40 μM solution of bpV(Phen). The fluorescence signal was monitored using a microplate reader (Envision, Perkin-Elmer) using excitation and emission wavelengths of 360 nm and 450 nm, respectively. The inhibitor dose-response curves were analyzed using normalized IC50 regression curve fitting with control-based normalization.

In general, IC50 refers to the midpoint of a concentration-inhibition curve.

Consider `C[C@@H]1OCC2(CCN(c3ncc(Sc4cccc(Cl)c4Cl)[nH]c3=O)CC2)[C@@H]1N`, for which the “improvement of combination over monotherapy” value in assay [1] was “more than 50%”. In assay [2], the “anti-tumor activity compared with reference compound” value is recorded as “superior anti-tumor activities than reference compound RMC-4550” and the tumor growth inhibition result was “more than 90%”. In assay [3] (30 mg/kg per day co-administered with CDK4/6 inhibitor SYB-020097 (50 mg/kg per day)), the “reduction of tumor growth, combination vs each compound alone” value is on record as “significantly higher reduction of tumor growth”. Moreover, the “reduction of tumor growth, combination vs each compound alone” value in assay [3] (30 mg/kg per day co-administered with MEK inhibitor SYB-020099 (1 mg/kg per day)) is recorded as “significantly higher reduction of tumor growth”.

For the compound `NC1COCC12CCN(c1ncc(Sc3cccc(Cl)c3Cl)[nH]c1=O)CC2` (centres unmarked) [Example 10, 3-(4-amino-2-oxa-8-azaspiro[4.5]decan-8-yl)-6-((2,3-dichlorophenyl)thio)pyrazin-2 (1H)-one], the IC50 in assay [4] was less than 5000 nM.

As to `CC1(CN)CCN(c2ncc(Sc3cccc(NC(=O)c4c(O)nc5ccccn5c4=O)c3Cl)[nH]c2=O)CC1` [Example 29, N-(3-((5-(4-(aminomethyl)-4-methylpiperidin-1-yl)-6-oxo-1,6-dihydropyrazin-2-yl)thio)-2-chlorophenyl)-2-hydroxy-4-oxo-4H-pyrido[1,2-a]pyrimidine-3-carboxamide], the IC50 in assay [5] was not above 50 nM; in assay [4], less than 5000 nM.

Consider `CC1(CN)CCN(c2ncc(Sc3cccc(NC(=O)c4c(O)nc5sccn5c4=O)c3Cl)[nH]c2=O)CC1` [Example 31, N-(3-((5-(4-(aminomethyl)-4-methylpiperidin-1-yl)-6-oxo-1,6-dihydropyrazin-2-yl)thio)-2-chlorophenyl)-7-hydroxy-5-oxo-5H-thiazolo[3,2-a]pyrimidine-6-carboxamide], for which the IC50 in assay [5] was not above 50 nM; in assay [4], less than 5000 nM.

Take `N[C@@H]1COCC12CCN(c1ncc(Sc3cccc(Cl)c3Cl)[nH]c1=O)CC2` [Example 73, (S)-3-(4-amino-2-oxa-8-azaspiro[4.5]decan-8-yl)-6-((2,3-dichlorophenyl)thio)pyrazin-2 (1H)-one]: the IC50 in assay [5] is not above 50 nM; in assay [4], less than 5000 nM.

Take `C[C@@H]1OCC2(CCN(c3ncc(Sc4ccnc(Cl)c4Cl)[nH]c3=O)CC2)[C@@H]1N` [Example 81, 3-((3S,4S)-4-amino-3-methyl-2-oxa-8-azaspiro[4.5]decan-8-yl)-6-((2,3-dichloropyridin-4-yl)thio)pyrazin-2(1H)-one]: the results for the IC50 in assay [5] and in assay [4] were not above 50 nM and less than 1000 nM, respectively.

Regarding `C[C@@H]1OCC2(CCN(c3ncc(Sc4cccc(F)c4F)[nH]c3=O)CC2)[C@@H]1N` [Example 82, 3-((3S,4S)-4-amino-3-methyl-2-oxa-8-azaspiro[4.5]decan-8-yl)-6-((2,3-difluorophenyl)thio)pyrazin-2(1H)-one], the IC50 was not above 50 nM in assay [5] and less than 5000 nM in assay [4].

Take `C[C@@H]1OCC2(CCN(c3ncc(Sc4ccnc(F)c4Cl)[nH]c3=O)CC2)[C@@H]1N` [Example 83, 3-((3S,4S)-4-amino-3-methyl-2-oxa-8-azaspiro[4.5]decan-8-yl)-6-((3-chloro-2-fluoropyridin-4-yl)thio)pyrazin-2(1H)-one]: the IC50 in assay [5] is not above 50 nM; in assay [4], less than 1000 nM.

For `C[C@@H]1OCC2(CCN(c3ncc(Sc4ccnc(F)c4F)[nH]c3=O)CC2)[C@@H]1N` [Example 84], the results for the IC50 in assay [5] and in assay [4] were not above 50 nM and less than 1000 nM, respectively.

On to `C[C@@H]1OCC2(CCN(c3ncc(Sc4cccc(F)c4Cl)[nH]c3=O)CC2)[C@@H]1N` [Example 109, 3-((3S,4S)-4-amino-3-methyl-2-oxa-8-azaspiro[4.5]decan-8-yl)-6-((2-chloro-3-fluorophenyl)thio)pyrazin-2(1H)-one], for which the IC50 in assay [5] was not above 50 nM; in assay [4] it was less than 5000 nM.

For `Nc1nccc(Sc2cnc(N3CCC4(CCC[C@@H]4N)CC3)c(=O)[nH]2)c1Cl` [Example 133, (S)-6-((2-amino-3-chloropyridin-4-yl)thio)-3-(1-amino-8-azaspiro[4.5]decan-8-yl)pyrazin-2(1H)-one], the IC50 in assay [5] is not above 50 nM.

On to `N[C@@H]1c2cccnc2CC12CCN(c1ncc(Sc3cccc(Cl)c3Cl)[nH]c1=O)CC2` [Example 134, (S)-3-(5-amino-5,7-dihydrospiro[cyclopenta[b]pyridine-6,4′-piperidin]-1′-yl)-6-((2,3-dichlorophenyl)thio)pyrazin-2(1H)-one], for which the IC50 in assay [5] was not above 50 nM.

Take `N[C@H]1CCCC12CCN(c1ncc(Sc3ccnc(Cl)c3Cl)[nH]c1=O)CC2` [Example 135, (S)-3-(1-amino-8-azaspiro[4.5]decan-8-yl)-6-((2,3-dichloropyridin-4-yl)thio)pyrazin-2(1H)-one]: the IC50 in assay [5] was not above 50 nM.

Regarding `[2H][C@@]1(N)[C@H](C)OCC12CCN(c1ncc(Sc3cccc(Cl)c3Cl)[nH]c1=O)CC2` [Example 136], the IC50 in assay [5] is not above 50 nM.

The values are drawn from US20230010886A1 (SUZHOU PUHE BIOPHARMA CO., LTD., priority 2019, published 2023).
